Assay results as given in PMC12040169 (PLOS Biology, 2025).

experiment: in vitro; conditions: human, hela cells, % viability

Compared with `O=C(Nc1ccc2c(c1)OCO2)N1CCN(c2ccc(F)cc2)CC1` [CBK270332], `COc1ccc(N2CCN(CC(=O)N3CCC(C(N)=O)CC3)CC2)cc1` [CBK268993] is higher in viability at 28.5 h, 10 µM: 86.3% for the first, 96.6% for the second.

Compared with `Cc1cc(O)c(C(=O)Nc2cccc(Cl)c2)c(=O)n1Cc1ccccn1` [CBK287729], `O=C(CSc1nc2ccccc2c(=O)[nH]1)Nc1ccc(Cl)c(C(=O)O)c1` [CBK268246] is higher in viability at 28.5 h, 10 µM: 99.3% for the first, 103% for the second.

First: Clc1ccc(CSc2cccs2)cn1 [CBK002639]
Second: CC(C)c1ccc(-c2cncc(NCCCO)n2)cc1 [CBK037937]
The viability at 28.5 h, 10 µM of the first is lower: 95.5% for the first, 106% for the second.

Compared with `O=S(=O)(NC[C@H]1C[C@@H]2CC[N@]1C[C@@H]2CN1CCOCC1)c1ccc(Cl)cc1` [CBK288762], `O=c1oc2ccccc2c(NCCCN2CCOCC2)c1[N+](=O)[O-]` [CBK261471] is higher in viability at 28.5 h, 10 µM: 92.4% for the first, 120% for the second.

Going from `Cn1ncc2c(=O)n(Cc3noc(-c4ccsc4)n3)cnc21` [CBK305056] to `Cc1cccnc1C(Cc1ccsc1)NS(=O)(=O)c1ccc2[nH]c(=O)[nH]c(=O)c2c1` (centres unmarked) [CBK286356], the viability at 28.5 h, 10 µM rises from 99% to 111%.

Compared with `COc1cc2c(cc1NC(=O)CSc1nc3ccccc3[nH]1)oc1ccccc12` [CBK265153], `O=C1CC(SCc2nc3ccccc3[nH]2)C(=O)N1c1ccccc1Cl` (centres unmarked) [CBK266702] is lower in viability at 28.5 h, 10 µM: 100% for the first, 94.7% for the second.

Compared with `O=C(Nc1cccc2c(NC(=O)C3CC3c3ccccc3)cccc12)C1CC1c1ccccc1` (centres unmarked) [CBK260911], `O=C(O)c1ccc(NC(=O)c2cccc(NC(=O)c3cccc4ccccc34)c2)cc1` [CBK299823] is higher in viability at 28.5 h, 10 µM: 99.1% for the first, 101% for the second.

First: CN1CCN(S(=O)(=O)c2ccc(Br)cc2C(F)(F)F)CC1 [CBK062437]
Second: O=S(=O)(Nc1cc(-c2ccco2)n[nH]1)c1ccc(Br)cc1C(F)(F)F [CBK067286]
The viability at 28.5 h, 10 µM of the first is lower: 90.7% for the first, 96.2% for the second.

Going from `Cc1ncsc1CCOc1nc2ccccc2nc1NC(C)C` [CBK115736] to `CC(C)Nc1nc2cc(Cl)c(Cl)cc2nc1OCCN(C)C` [CBK113419], the viability at 28.5 h, 10 µM rises from 102% to 103%.

Going from `CC1Cc2cc(C(=O)C3=C(O)C(=O)N(Cc4ccco4)C3c3cccnc3)ccc2O1` (centres unmarked) [CBK266236] to `O=C(C1=C(O)C(=O)N(CCCn2ccnc2)C1c1ccccc1)c1cccs1` (centres unmarked) [CBK264484], the viability at 28.5 h, 10 µM rises from 104% to 110%.

Compared with `COc1ccc(N(CC(=O)Nc2cccc3cccnc23)S(=O)(=O)c2ccc(C)cc2)cc1` [CBK263965], `COc1ccccc1NC(=O)Cn1nc(-c2ccc(C)cc2)ccc1=O` [CBK269974] is higher in viability at 28.5 h, 10 µM: 74% for the first, 93.1% for the second.

Going from `COCCNC(=O)N1CCCC(CO)C1` (centres unmarked) [CBK156040] to `CC(C)CCNC(=O)N1CCC(C(=O)O)CC1` [CBK156075], the viability at 28.5 h, 10 µM rises from 88.3% to 95.3%.

Going from `CCCCSc1nc(N)cc(N2CCCC(N3CCCC3=O)C2)n1` (centres unmarked) [CBK306995] to `Cc1cc(N2CCOCC2)nc(N)n1` [CBK012710], the viability at 28.5 h, 10 µM rises from 95.5% to 99.1%.

First: Cc1cccc(CN2CCC(NC(=O)C3(C#N)CCCC3)CC2)c1 [CBK305781]
Second: CS(=O)(=O)N1CC2(CCN(CC3CCCCC3)CC2)c2ccccc21 [CBK084018]
The viability at 28.5 h, 10 µM of the first is lower: 91.8% for the first, 96.8% for the second.

First: O=C(O)COc1ccccc1/C=N/n1c(S)nnc1-c1ccc(Cl)cc1Cl [CBK264418]
Second: O=C(O)Cn1c2ccc(Br)cc2c2nc3ccccc3nc21 [CBK266416]
The viability at 28.5 h, 10 µM of the first is lower: 89.5% for the first, 97.1% for the second.

Compared with `CCCC1=NN=C(c2cc(C(F)(F)F)ccc2C(F)(F)F)C1C(=O)OCC` (centres unmarked) [CBK103527], `CCCCc1c(C)nc2ccc(Br)cc2c1SCCC(=O)O` [CBK126915] is lower in viability at 28.5 h, 10 µM: 118% for the first, 93.4% for the second.

First: CCOC(=O)N1CCN(S(=O)(=O)c2ccc3c(c2)n(C)c(=O)n3C)CC1 [CBK304620]
Second: CCOC(=O)N1CCC(NS(=O)(=O)c2cc(Br)ccc2OC)CC1 [CBK045463]
The viability at 28.5 h, 10 µM of the first is lower: 86.8% for the first, 115% for the second.

Going from `CC(=O)Nc1ccc(-c2cncc(NCCCO)n2)cc1` [CBK065598] to `O=[N+]([O-])c1ccc(NC(=S)NCCCn2ccnc2)cc1` [CBK264915], the viability at 28.5 h, 10 µM falls from 103% to 93.3%.

Compared with `CCc1cc(C(=O)NC(Cn2ccnc2)C(C)(C)C)cc(=O)[nH]1` (centres unmarked) [CBK304410], `CCN(CC)C(=O)CCn1c(-c2ccc(C)nc2)cc2cccnc21` [CBK282150] is lower in viability at 28.5 h, 10 µM: 101% for the first, 87.2% for the second.

First: COc1cc(C#N)ccc1Oc1nnnn1-c1ccccc1 [CBK002571]
Second: CC1=Nc2c(cnn2-c2ccccc2)C2=NCCCN12 [CBK287928]
The viability at 28.5 h, 10 µM of the first is higher: 93.1% for the first, 91.6% for the second.

First: Cc1cccc(-c2ccc(CC3(C(N)=O)CCN(C(=O)Cc4ccccc4)CC3)cc2)c1 [CBK285780]
Second: Cc1c(-c2cccc(Cl)c2)nc2ccccc2c1C(=O)NCCc1ccc(S(N)(=O)=O)cc1 [CBK267784]
The viability at 28.5 h, 10 µM of the first is higher: 101% for the first, 96% for the second.

Going from `CCCN(CCC)C(=O)Cn1cnc2ccc(Cl)cc2c1=O` [CBK304651] to `CN(Cc1cnn(C)c1)C(=O)c1ccc(Cl)cc1Br` [CBK305404], the viability at 28.5 h, 10 µM rises from 78.2% to 93%.

Compared with `c1ccc(CCCN2CCN(C3CCN(Cc4ccccc4)CC3)CC2)cc1` [CBK263457], `c1ccc(CNCc2nc(-c3ccccc3)no2)cc1` [CBK024404] is higher in viability at 28.5 h, 10 µM: 84.8% for the first, 99.1% for the second.

First: CC(C)c1ccc(S(=O)(=O)NC(CC(=O)O)c2ccccc2)cc1 (centres unmarked) [CBK266217]
Second: Cc1ccccc1NC(=O)COc1ccc(S(=O)(=O)N2CCCC2)cc1Cl [CBK268938]
The viability at 28.5 h, 10 µM of the first is higher: 102% for the first, 95.2% for the second.

Going from `CCCN(CCC)CCc1cccc2c1CCN2C(=O)c1cc2ccccc2s1` [CBK017871C] to `CCN(CC)CCn1c2ccccc2c2nc3cc(C(=O)O)ccc3nc21` [CBK297496], the viability at 28.5 h, 10 µM rises from 93.2% to 101%.

First: O=c1cc(N2CCCC2)cnn1Cc1cscn1 [CBK304635]
Second: CCOC(=O)c1cn(CC)c2cc(N3CCCC3)c(F)cc2c1=O [CBK307169]
The viability at 28.5 h, 10 µM of the first is lower: 84.1% for the first, 101% for the second.

Compared with `N=C(Nc1nc(CSc2nnc(N)s2)cc(=O)[nH]1)Nc1ccc(Cl)cc1Cl` [CBK268890], `O=C1Nc2c(cnn2-c2ccc(Cl)cc2)C2=NCCN12` [CBK284341] is higher in viability at 28.5 h, 10 µM: 85.5% for the first, 93.1% for the second.

First: O=C1CC2(CCN(Cc3ccc(C(F)(F)F)cc3)CC2)CN1 [CBK283359]
Second: O=C(O)C1CCN(S(=O)(=O)c2ccc(F)cc2)CC1 [CBK100196]
The viability at 28.5 h, 10 µM of the first is lower: 86.8% for the first, 102% for the second.

Going from `COc1cccc(C(=O)NC[C@H]2CC[C@H](c3cc(C(N)=O)c4ccccc4n3)CC2)c1OC` [CBK285919] to `COc1ccccc1N1CC(C(=O)Nc2ccc(C(=O)O)cc2)CC1=O` (centres unmarked) [CBK269606], the viability at 28.5 h, 10 µM falls from 88.6% to 84.9%.

First: O=C1NCCN1CCOc1nccnc1-c1ccc(F)cc1 [CBK106898]
Second: CN(C)C(=O)c1cccc(-c2nccnc2NCc2cccc([N+](=O)[O-])c2)c1 [CBK036651]
The viability at 28.5 h, 10 µM of the first is higher: 97.8% for the first, 94.3% for the second.

Going from `Nc1cccc(-c2cn(C[C@H]3CC4CCN3C[C@@H]4C(=O)NCc3cccnc3)nn2)c1` (some centres unmarked) [CBK289088] to `O=C(CCc1ccco1)N1CCCCC1c1nc2ccccc2[nH]1` (centres unmarked) [CBK283711], the viability at 28.5 h, 10 µM rises from 84.3% to 99.9%.

Compared with `Oc1cccc2ccc(-n3ccnc3)nc12` [CBK017812], `Nc1ncnc2nc(-c3ccncc3)nn12` [CBK288550] is higher in viability at 28.5 h, 10 µM: 79.3% for the first, 102% for the second.

Going from `COCCn1c(SCc2c(C)nc3ccccn23)nc(C)c1C` [CBK305212] to `CCNc1cc2ccccc2c(-c2cc(C(C)C)ccc2OC)n1` [CBK073777], the viability at 28.5 h, 10 µM rises from 80.1% to 110%.

Going from `CN1CCC(OCCCn2ccnc2-c2ccccc2C(=O)O)CC1` [CBK307188] to `CS(=O)(=O)N1CCC(C(=O)NNC(=S)Nc2cccc3ccccc23)CC1` [CBK266811], the viability at 28.5 h, 10 µM falls from 87% to 84.2%.

`O=C(NC1CCCCC1)[C@@H]1C=CCN1C(=O)c1cccs1` [CBK284338] and `O=C(O)C1CCCN1C(=O)Nc1ccccc1Cl` (centres unmarked) [CBK161381] are the same in viability at 28.5 h, 10 µM: 95.8% for the first, 95.8% for the second.

Compared with `COC(=O)c1cccn2cc(CN3CCSC(C)C3)nc12` (centres unmarked) [CBK304958], `COc1ccc(C(=O)N2CCC3(CCCN(CC(=O)Nc4ncccn4)C3)C2)cc1OC` (centres unmarked) [CBK132860] is higher in viability at 28.5 h, 10 µM: 97.4% for the first, 105% for the second.

Compared with `Cc1nn(-c2ccccc2)c2[nH]c(=O)c(CNC3CCC3)cc12` [CBK282897], `O=C(Cc1ccccc1F)NCCn1nc2c(cc1=O)CCCCC2` [CBK284519] is lower in viability at 28.5 h, 10 µM: 103% for the first, 94.7% for the second.

First: N#Cc1ccc(C(=O)N2C[C@@H]3C[C@H](C2)c2ccc(-c4cccc(C#N)c4)c(=O)n2C3)cc1 [CBK289187]
Second: CCOC(=O)c1ccc(-c2ccc(OC)cc2)cc1 [CBK002658]
The viability at 28.5 h, 10 µM of the first is higher: 101% for the first, 95.2% for the second.

Going from `CCn1c(-c2ccc(C)cc2)cnc1SCC(=O)N1CCN(C(C)=O)CC1` [CBK296925] to `Cc1ccc(/C=C/C(=O)O)cc1S(=O)(=O)N1CCCc2ccccc21` [CBK264425], the viability at 28.5 h, 10 µM falls from 110% to 101%.

Going from `Cc1cc(C)c(Oc2nc(=O)n([C@H]3C[C@@H](O)[C@@H](CO)O3)cc2F)c(C)c1` [CBK201184] to `O=C1NC2=C(C(=O)N(CC3CCCO3)C2)C(c2ccc(F)c(F)c2)N1` (centres unmarked) [CBK282271], the viability at 28.5 h, 10 µM rises from 96.4% to 98%.

Compared with `COc1ccc(O)c(C(=O)c2cnn(-c3ccc(Cl)c(C(=O)O)c3)c2)c1` [CBK297914], `Cc1ccc2nc(O)c(C3=NN(C(=O)CCC(=O)O)C(c4ccco4)C3)c(-c3ccccc3)c2c1` (centres unmarked) [CBK267544] is higher in viability at 28.5 h, 10 µM: 90.2% for the first, 91% for the second.

Going from `Cc1cc(C[C@@H]2COC[C@H]2NCc2cccc(Cl)c2)on1` [CBK284885] to `Cc1c(Cl)cccc1CNC(=O)CC1SC(NCC2CCCCC2)=NC1=O` (centres unmarked) [CBK067017], the viability at 28.5 h, 10 µM rises from 89.9% to 91.7%.

Compared with `Nc1nc(CCN2CCOCC2=O)cs1` [CBK003792], `Cc1c(C(=O)N(C)C2CCNC2)nnn1-c1ccc2ncccc2c1` (centres unmarked) [CBK304698] is higher in viability at 28.5 h, 10 µM: 85.8% for the first, 94.5% for the second.

Compared with `O=C(Nc1ccc2nc(-c3ccc(-c4nc5ccc(NC(=O)c6cccs6)cc5[nH]4)cc3)[nH]c2c1)c1cccs1` [CBK261590], `COC(=O)c1ccccc1S(=O)(=O)n1c(=O)n(CCc2c[nH]c3ccccc23)c2ccccc21` [CBK106509] is higher in viability at 28.5 h, 10 µM: 87.1% for the first, 87.2% for the second.

Work on `CN(C)/N=C\c1cccc(O)c1` [CBK015814] yielded a viability at 28.5 h, 10 µM of 95.2%.
